These compounds were tested on P. falciparum 3D7 growth, pLDH absorbance (assay: P. falciparum 3D7 growth inhibition, dose response, strain 3D7 (AID 2305)).
`CCN(CC)CCN(CCCc1ccc(-c2ccc(C(F)(F)F)cc2)cc1)C(=O)Cn1c(CCc2cccc(F)c2F)nc(=O)c2ccccc21` was tested, and the IC50 was 770 nM. In the case of `CC(=O)c1ccc(-c2cccc3c(CC(=O)Nc4ccc5nccc(N6CCN(C)CC6)c5c4)cccc23)cc1`, the IC50 is reported as 500 nM. `CCN(CC)CCN(Cc1ccc(-c2ccc(C(F)(F)F)cc2)cc1)C(=O)Cn1c(CCc2ccc(F)c(F)c2F)nc(=O)c2cccnc21` showed an IC50 of 1130 nM. With `C=CCn1c(=N)c(C(=O)NC2CCCCC2)cc2c(=O)n3cccc(C)c3nc21` the IC50 was 1040 nM. Compound `COc1cc2c(cc1O)[C@@H]1[C@H](O)[C@@H](O)C=C3CCN(C2)[C@H]31` has an IC50 of 990 nM. With `CCC(=O)Nc1ccc(C(O)CN2CCC3(C=Cc4ccccc4O3)CC2)cc1` (configuration not stated) the IC50 was 1200 nM. For `CCOc1cc(-c2nnc3[nH]c(=O)n(C)c(=O)c3n2)ccc1OC(C)C`, the IC50 was 400 nM. `O=C(Cc1cccc(Cl)c1)Nc1cccc(-c2c[nH]c3nc(Nc4ccccc4)ncc23)c1` showed an IC50 of 680 nM. `Cc1cc(NCCc2ccccc2)nc(/N=C(\N)Nc2cccc([N+](=O)[O-])c2)n1` showed an IC50 of 140 nM. In the case of `CCCCN(CCCC)CCCN(CCCN(CCCC)CCCC)c1cc(C)nc(Nc2ccc3cc(Br)ccc3c2)n1`, the IC50 is reported as 320 nM. `COc1ccc2c(c1CNCCCCCCNCc1c(OC)ccc3c1CCCC3)CCCC2` gave an IC50 of 910 nM. Compound `COc1cc(NCC(O)CNc2cc(Cl)nc3ccccc23)nc2ccccc12` (configuration not stated) has an IC50 of 420 nM. Compound `COc1ccc(CN2CCC(Oc3cccc(NC(=O)c4ccc(C(F)(F)F)cc4)c3)CC2)cc1` has an IC50 of 740 nM. For `COc1ccc(-c2nc3ccc(C)nc3nc2-c2ccc(OC)cc2)cc1`, the IC50 was 1110 nM. For `c1cc(CN2CCN(c3ccncc3)CC2)cc(-c2ccc(-c3nc4ccccc4[nH]3)cc2)c1`, the IC50 was 150 nM. `COc1ccc2nc3cc(Cl)ccc3c(NCCN3CCN(C)CC3)c2c1` was tested, and the IC50 was 120 nM. `CN(C)CCCNCc1ccc(-c2ccc(C(F)(F)F)cc2)cc1` gave an IC50 of 870 nM. Compound `CCC(C)OC(=O)C1=C(C)NC2=C(C(=O)CC(c3ccc(OC)c(OC)c3)C2)C1c1ccc(O)cc1` (configuration not stated) has an IC50 of 220 nM. Compound `CC(C)c1ccc(CN2CCC(NC(=O)c3ccc(-c4ccccc4F)s3)CC2)cc1` has an IC50 of 1550 nM. `CC(C)N1CCN(C(=O)c2ccc(CNCCCN3CCN(c4cccc(Cl)c4Cl)CC3)s2)CC1` gave an IC50 of 720 nM. With `CC[C@H]1CN2CC[C@H]1C[C@H]2[C@H](O)c1cc(-c2ccc(SC)cc2)nc2ccc(OC)cc12` the IC50 was 60 nM. Work on `Cc1cccc2[nH]c(-c3ccc(-c4cccc(CN5CCN(c6ccc(C#N)cn6)CC5)c4)s3)nc12` yielded an IC50 of 1420 nM. In the case of `CCCCN(CCCC)CCC(O)C(=Cc1ccc(Cl)cc1Cl)c1ccc(C(F)(F)F)cc1N` (configuration not stated), the IC50 is reported as 190 nM. Compound `O=C1COc2ccc(CNC3CCC(O)(CCc4ccnc5cc6c(cc45)OCCO6)CC3)nc2N1` (configuration not stated) has an IC50 of 930 nM. For `O=C(CCC1CCCCC1=O)c1ccccc1` (configuration not stated), the IC50 was 770 nM. `Cc1cccc2[nH]c(-c3cccc(-c4cccc(NC(=O)CN5CCN(C)CC5)c4)c3)nc12` gave an IC50 of 530 nM. For `C=CCN1CCC(N(Cc2cccc(Oc3ccccc3)c2)C(=O)C(c2ccccc2)c2ccccc2)CC1`, the IC50 was 1140 nM. `O=C(Nc1ccc2c(ccn2C2CCCN(Cc3cc(F)cc(F)c3F)CC2)c1)c1ccco1` (configuration not stated) gave an IC50 of 650 nM. With `Cc1nc(C)c(-c2ccc(Oc3ccc(OC(F)(F)F)cc3)cc2)c(OC(=O)c2ccc(CN(C)C)cc2)c1Cl` the IC50 was 140 nM. `O=C(NCCCCN1CCC(c2ccc3c(c2OCc2ccncc2)CCCC3)CC1)c1ccc(NC(=O)c2ccc(Cl)cc2)cc1` showed an IC50 of 220 nM. `O=C(Nc1ccc(-c2cccc(-c3nc4ccccc4[nH]3)c2)cc1)Nc1ccsc1` showed an IC50 of 250 nM. For `COc1nc2c(CCN3CCC(NCc4ccc5c(c4)NC(=O)CO5)CC3)c(Cl)cnc2cc1F`, the IC50 was 770 nM. `CC(C)c1ccc(N2CCN(CCCCNC(=O)c3ccc(NC(=O)c4cc(Cl)cc(Cl)c4)cc3)CC2)cc1` showed an IC50 of 160 nM. Work on `CC(=O)c1ccc(-n2ccnc2)cc1` yielded an IC50 of 850 nM. `O=c1cc(NCCCCNCc2cccc(Br)c2)[nH]c2ccccc12` showed an IC50 of 730 nM. In the case of `Cc1cc(=O)c2cc(Oc3ccc(OC(F)(F)F)cc3)ccc2[nH]1`, the IC50 is reported as 990 nM. With `CC(C)(C)c1ccc(NC(=O)c2cccc(CN3CCN(Cc4cccc(O)c4)CC3)c2)cc1` the IC50 was 1400 nM. `N#CC(c1ccc(Cl)cc1)c1ccc2c(C(F)(F)F)cc(C(F)(F)F)nc2n1` (configuration not stated) was tested, and the IC50 was 1010 nM. For `Cn1cccc1C(=O)C(=O)Nc1ccc(-c2ccc(-c3nc4ccc(F)cc4[nH]3)cc2)cc1`, the IC50 was 840 nM. `CCN(C)C(=O)n1ncc2c3c(N)nc(N)nc3ccc21` was tested, and the IC50 was 180 nM. Compound `COc1ccc(CC(=O)Nc2ccc(Nc3nc(C)cc(N(C)C)n3)cc2)cc1` has an IC50 of 790 nM. `Cc1cc(NN=CC=Cc2ccccc2)c2cc(F)ccc2n1` gave an IC50 of 730 nM. Work on `CCc1ccc(O)c(-c2cc(C(=O)Nc3ccc(OC)c(Cl)c3)[nH]n2)c1` yielded an IC50 of 870 nM. For `Nc1c2c(nc3ccc(NC(=O)CCCc4ccccc4)cc13)CCCC2`, the IC50 was 430 nM. Compound `COc1ccc2nccc([C@@H](O)CN3CCC(NC(=O)/C=C/c4c[nH]c5c(C)cccc45)CC3)c2c1` has an IC50 of 130 nM. For `FC(F)(F)c1ccc2nc(-c3ccc(-c4cccc(CNCCN5CCNCC5)c4)cc3)[nH]c2c1`, the IC50 was 1030 nM. In the case of `O=C(Nc1ccc(CN2CCCCC2)cc1)c1ccc(COc2ccc([N+](=O)[O-])cc2)o1`, the IC50 is reported as 1000 nM. In the case of `COc1cc(Cc2cnc(N)nc2N)ccc1OCc1ccc(NC(C)=O)cc1`, the IC50 is reported as 370 nM. For `O=[N+]([O-])c1cccc(CNC2CCN(Cc3ccc(-c4ccccc4)cc3)CC2)c1`, the IC50 was 230 nM. Work on `COc1cc2c(cc1CCNCCCCNCCc1cc3c(cc1OC)CCCC3)CCCC2` yielded an IC50 of 1000 nM. In the case of `CSCCC(C(=O)O)N1C(=O)c2ccccc2C1=O` (configuration not stated), the IC50 is reported as 1030 nM. With `CCOC(=O)c1cn(CC)c2cc(N3CCCCC3)c(F)cc2c1=O` the IC50 was 130 nM. `COc1cccc(NC(=O)c2cc(C(=O)Nc3cccc(OC)c3)cc([N+](=O)[O-])c2)c1` gave an IC50 of 660 nM. `COc1cccc2cc(C(=O)N[C@@H](CC(C)C)C(=O)Nc3cc(F)ccc3Br)oc12` gave an IC50 of 970 nM. `CC(C)(C)N1CCC(N(Cc2ccc(-c3ccc(C(F)(F)F)cc3)cc2)C(=O)Cn2c(CCc3cccc(F)c3F)nc(=O)c3cccnc32)CC1` gave an IC50 of 760 nM. `CCNc1cc(C(=O)N[C@@H](Cc2ccccc2)[C@H](O)CNC(C)(C)Cc2cccc(Cl)c2)cc(N2CCCCS2(=O)=O)c1` was tested, and the IC50 was 890 nM. Compound `O=C(Cc1ccc(-c2ccccc2)cc1)N[C@H]1CCN(Cc2ccc(OCCCN3CCCCC3)cc2)C1` has an IC50 of 770 nM. Compound `O=C(N[C@@H](CC1CCCCC1)C(=O)NCCN1CCCCC1)c1ccc(O)c(-c2cccc(C(F)(F)F)c2)c1` has an IC50 of 830 nM. `O=C(Nc1cccc(CN2CCN(C(=O)c3cccc(F)c3)CC2)c1)c1ccco1` was tested, and the IC50 was 770 nM. `O=C(Nc1ccc(Cl)cc1)c1ccc(CN2CCCN(Cc3cccc(F)c3)CC2)cc1` was tested, and the IC50 was 1030 nM. Compound `Cc1ccc(C(=O)N2CCN(Cc3nccs3)CC2)cc1` has an IC50 of 1010 nM. For `CCOc1ccc(OCC(=O)Nc2nc(-c3ccc(OC)cc3)c(C)s2)cc1`, the IC50 was 220 nM. In the case of `O[C@@H](c1ccc2ccccc2c1)[C@@H]1CN(CCc2ccccc2)CC[C@@]1(O)c1ccccc1`, the IC50 is reported as 550 nM. `O=C(NCCN1CCCC1)c1cccc(-c2ccc(-c3nc4ccccc4[nH]3)cc2)c1` showed an IC50 of 920 nM. `Cc1cccc2[nH]c(-c3ccc(-c4cccc(CNCCc5ccncc5)c4)cc3)nc12` showed an IC50 of 200 nM. For `Cc1ccc(N2CCN(CCCCNC(=O)c3ccc(NC(=O)c4ccc(Cl)cc4)cc3)CC2)c(C)c1`, the IC50 was 760 nM. With `O=C(NC1c2ccccc2Oc2ccccc21)c1ccccc1O` the IC50 was 840 nM. In the case of `COc1cc(NC(=O)/C=C/c2ccccc2OC(F)(F)F)cc(OCCN2CCC(O)(c3ccccc3)CC2)c1`, the IC50 is reported as 290 nM. `CC(C)(Oc1ccc(Cl)cc1)C(=O)NCCC1CCN(CCCCCNC(=O)/C=C/c2ccc(Cl)c(Cl)c2)CC1` showed an IC50 of 940 nM. Work on `CCOc1cc(Cl)c(C(C)NC(=O)c2cccc(OC)c2)cc1OCC` (configuration not stated) yielded an IC50 of 960 nM. `O=C(Nc1ccc(I)cc1)N1CCc2sccc2C1CN1CCCCC1` (configuration not stated) gave an IC50 of 1200 nM. `Cn1ccnc1S(=O)(=O)CCNCc1ccc(-c2ccc3ncnc(Nc4ccc(OCc5cccc(F)c5)c(Cl)c4)c3c2)o1` gave an IC50 of 700 nM. `CCCCCCNC(=O)C1Cc2c([nH]c3ccccc23)C2(CCN(CCc3ccccc3)CC2)N1` (configuration not stated) gave an IC50 of 1140 nM. Compound `COc1ccc(Cl)cc1-c1nc(C(=O)NCCN2CCCCC2)c(C(C)C)s1` has an IC50 of 750 nM. Work on `CC(C)c1ccc(NC(=O)c2ccc(NCCCN(C)Cc3ccccc3)c([N+](=O)[O-])c2)cc1` yielded an IC50 of 680 nM. For `Cc1ccc2nc(-c3cc(-c4cccc(C#N)c4)cnc3N)[nH]c2c1`, the IC50 was 120 nM. `Cc1cccc2[nH]c(-c3cccc(-c4ccc(CN5CCN(CCO)CC5)cc4)c3)nc12` gave an IC50 of 820 nM. Compound `O=C(C=Cc1ccc(Cl)c(Cl)c1)NCCCCCN1CCC(CCCNS(=O)(=O)c2ccc(Br)cc2)CC1` has an IC50 of 1130 nM. For `O=S(=O)(Nc1cc2c(cc1O)CCN(C1CCC1)CC2)c1ccc(-c2ccc(F)cc2)cc1`, the IC50 was 420 nM. `Nc1ncc(-c2cccc(OCc3ccccc3)c2)cc1-c1nnc2ccc(Cl)nn12` showed an IC50 of 1430 nM. In the case of `CCN(CCCN1CCCCC1)c1cc(C)nc(Nc2cc(Br)ccc2C)n1`, the IC50 is reported as 410 nM. Compound `O=C1CCCC1Sc1nc2ccccc2c(=O)n1-c1ccc(Cl)c(Cl)c1` (configuration not stated) has an IC50 of 730 nM. With `CC(C)c1ccc(-c2noc(SCC(=O)N3CCCCC3C)n2)cc1` (configuration not stated) the IC50 was 1670 nM. `CCc1nonc1NC(=O)c1oc2c(C)c(C)ccc2c1C` was tested, and the IC50 was 880 nM. `N=C(N)CCN(Cc1ccccc1)c1ccc(Cl)cc1` gave an IC50 of 260 nM. For `CCCc1c(C(=O)NC2CCC(CN3CCC(c4c[nH]c5ccccc45)CC3)CC2)cnn1-c1c(Cl)cc(Cl)cc1Cl` (configuration not stated), the IC50 was 820 nM. `Cc1cccc2[nH]c(-c3ccc(-c4ccc(NC(=O)c5cncn5C)cc4)s3)nc12` was tested, and the IC50 was 670 nM. For `CC(C)(CNC(=O)C1CCN(Cc2ccoc2)CC1)c1nc(-c2ccc(Cl)c(O)c2)c(-c2ccncc2)[nH]1`, the IC50 was 870 nM. `CC1CCc2c(C(=O)Nc3c(F)cc(F)cc3Br)csc2C1` (configuration not stated) was tested, and the IC50 was 750 nM. With `Cc1[nH]c(C)c(-c2ccc(-c3cccc(C(F)(F)F)c3)nc2)c(=O)c1Br` the IC50 was 140 nM. `Cc1ccc(C2(O)C[C@H]3CC[C@@H](C2)N3C)cc1` (some centres not stated) gave an IC50 of 610 nM. Work on `CCCCCC(=O)N1CCOC(CCN2CCC(c3ccccc3)CC2)(c2ccc(Cl)c(Cl)c2)C1` (configuration not stated) yielded an IC50 of 1120 nM. Work on `COc1cc2c(cc1S(=O)(=O)c1ccc(NC(=O)c3cccc(C(F)(F)F)c3)cc1)CCN(C)CC2` yielded an IC50 of 1380 nM. Work on `O[C@@H](c1ccccc1)[C@@H]1CN(Cc2ccccc2)CC[C@@]1(O)c1ccccc1` yielded an IC50 of 850 nM. For `COc1ccc(NC(=S)NC(NC(=O)CF)C(Cl)(Cl)Cl)cc1[N+](=O)[O-]` (configuration not stated), the IC50 was 480 nM. With `COc1ccc(C2CC(c3ccccc3)=NN2C(=O)c2ccc(Br)o2)cc1` (configuration not stated) the IC50 was 320 nM. `O=C(/C=C/c1ccc(Cl)c(Cl)c1)NCCCCN1CCC(c2c[nH]c3ccccc23)CC1` gave an IC50 of 860 nM.

From PubChem BioAssay AID2305 (GlaxoSmithKline (GSK), 2010)
